# ChEMBL document CHEMBL1201862, “PubChem BioAssay data set” (2004)
#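 Results reflect a 48-hour exposure of cells in 96-well plates to compound at five concentrations. GI50: concentration for 50% inhibition of growth.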 The source made the active and inactive calls. Rule as the data show it: active = GI50 up to about 1.1 µM and inactive = higher.
# How the values were obtained:
# Assay in all cases: NCI anticancer screen, dose series, 48 h
# UACC-257 = tested on: UACC-257
# MDA-N = tested on: MDA-N
# HOP-62 = tested on: HOP-62
# HOP-92 = tested on: HOP-92
# UACC-62 = tested on: UACC-62
# K562 = tested on: K562
# RPMI-8226 = tested on: RPMI-8226
# SK-OV-3 = tested on: SK-OV-3
# HL-60 = tested on: HL-60
# SK-MEL-2 = tested on: SK-MEL-2
# MDA-MB-231 = tested on: MDA-MB-231
# KM12 = tested on: KM12
# IGROV-1 = tested on: IGROV-1
# SF-268 = tested on: SF-268
# SR = tested on: SR
# OVCAR-8 = tested on: OVCAR-8
# HCT-15 = tested on: HCT-15
# SNB-75 = tested on: SNB-75
# SNB-19 = tested on: SNB-19
# Hs-578T = tested on: Hs-578T
# A549 = tested on: A549
# CAKI-1 = tested on: CAKI-1
# T47D = tested on: T47D
# OVCAR-4 = tested on: OVCAR-4
# M14 = tested on: M14
# COLO 205 = tested on: COLO 205
# HCT-116 = tested on: HCT-116
# NCI-H23 = tested on: NCI-H23
# HCC 2998 = tested on: HCC 2998
# SF-539 = tested on: SF-539
# UO-31 = tested on: UO-31
# OVCAR-5 = tested on: OVCAR-5
# MDA-MB-435 = tested on: MDA-MB-435
# LOX IMVI = tested on: LOX IMVI
# CCRF-CEM = tested on: CCRF-CEM
# SN12C = tested on: SN12C
# SF-295 = tested on: SF-295
# RXF 393 = tested on: RXF 393
# HT-29 = tested on: HT-29
# TK-10 = tested on: TK-10
# OVCAR-3 = tested on: OVCAR-3
# Malme-3M = tested on: Malme-3M
# SK-MEL-28 = tested on: SK-MEL-28
# EKVX = tested on: EKVX
# NCI-H226 = tested on: NCI-H226
# NCI-H460 = tested on: NCI-H460
# 786-0 = tested on: 786-0
# MCF7 = tested on: MCF7
# A498 = tested on: A498
# MOLT-4 = tested on: MOLT-4
# PC-3 = tested on: PC-3
# NCI/ADR-RES = tested on: NCI/ADR-RES
# DU-145 = tested on: DU-145
# ACHN = tested on: ACHN
# U-251 = tested on: U-251
# SW-620 = tested on: SW-620
# SK-MEL-5 = tested on: SK-MEL-5
# NCI-H522 = tested on: NCI-H522
smiles,measurement,setting,value
O=C1NC2c3c(I)sc(I)c3C(O)C2O1 (stereo not given),GI50,UACC-257,> 100 µM (inactive)
same,GI50,MDA-N,> 100 µM (inactive)
same,GI50,HOP-62,> 100 µM (inactive)
same,GI50,HOP-92,> 100 µM (inactive)
same,GI50,UACC-62,> 100 µM (inactive)
same,GI50,K562,> 100 µM (inactive)
same,GI50,RPMI-8226,> 100 µM (inactive)
same,GI50,SK-OV-3,> 100 µM (inactive)
same,GI50,HL-60,> 100 µM (inactive)
same,GI50,SK-MEL-2,> 100 µM (inactive)
same,GI50,MDA-MB-231,> 100 µM (inactive)
same,GI50,KM12,> 100 µM (inactive)
same,GI50,IGROV-1,> 100 µM (inactive)
same,GI50,SF-268,> 100 µM (inactive)
same,GI50,SR,> 100 µM (inactive)
same,GI50,OVCAR-8,> 100 µM (inactive)
same,GI50,HCT-15,> 100 µM
same,GI50,SNB-75,> 100 µM (inactive)
same,GI50,SNB-19,> 100 µM (inactive)
same,GI50,Hs-578T,> 100 µM (inactive)
same,GI50,A549,> 100 µM (inactive)
same,GI50,CAKI-1,> 100 µM (inactive)
same,GI50,T47D,> 100 µM (inactive)
same,GI50,OVCAR-4,> 100 µM (inactive)
same,GI50,M14,> 100 µM (inactive)
same,GI50,COLO 205,> 100 µM (inactive)
same,GI50,HCT-116,> 100 µM (inactive)
same,GI50,NCI-H23,> 100 µM (inactive)
same,GI50,HCC 2998,> 100 µM (inactive)
same,GI50,SF-539,> 100 µM (inactive)
same,GI50,UO-31,> 100 µM (inactive)
same,GI50,OVCAR-5,> 100 µM (inactive)
same,GI50,MDA-MB-435,> 100 µM (inactive)
same,GI50,LOX IMVI,> 100 µM (inactive)
same,GI50,CCRF-CEM,52.8 µM (inactive)
same,GI50,SN12C,> 100 µM (inactive)
same,GI50,SF-295,> 100 µM (inactive)
same,GI50,RXF 393,> 100 µM (inactive)
same,GI50,HT-29,> 100 µM (inactive)
same,GI50,TK-10,> 100 µM (inactive)
same,GI50,OVCAR-3,> 100 µM (inactive)
same,GI50,Malme-3M,> 100 µM (inactive)
same,GI50,SK-MEL-28,> 100 µM (inactive)
same,GI50,EKVX,> 100 µM (inactive)
same,GI50,NCI-H226,> 100 µM (inactive)
same,GI50,NCI-H460,> 100 µM (inactive)
same,GI50,786-0,> 100 µM (inactive)
same,GI50,MCF7,> 100 µM (inactive)
same,GI50,A498,> 100 µM (inactive)
same,GI50,MOLT-4,> 100 µM (inactive)
same,GI50,PC-3,> 100 µM (inactive)
same,GI50,NCI/ADR-RES,> 100 µM (inactive)
same,GI50,DU-145,> 100 µM (inactive)
same,GI50,ACHN,> 100 µM (inactive)
same,GI50,U-251,> 100 µM (inactive)
same,GI50,SW-620,> 100 µM (inactive)
O=C1C/C(=C\c2ccccc2)C(=O)c2ccccc2N1,GI50,UACC-257,26.9 µM (inactive)
same,GI50,MDA-N,22.9 µM (inactive)
same,GI50,HOP-62,27.5 µM (inactive)
same,GI50,HOP-92,29.9 µM (inactive)
same,GI50,UACC-62,19.2 µM (inactive)
same,GI50,SK-OV-3,35.2 µM (inactive)
same,GI50,HL-60,20.8 µM (inactive)
same,GI50,SK-MEL-2,28.5 µM (inactive)
same,GI50,MDA-MB-231,23.8 µM (inactive)
same,GI50,KM12,22.6 µM (inactive)
same,GI50,IGROV-1,18.6 µM (inactive)
same,GI50,SF-268,38.2 µM (inactive)
same,GI50,SR,42.8 µM (inactive)
same,GI50,OVCAR-8,18.8 µM (inactive)
same,GI50,HCT-15,24.7 µM
same,GI50,SNB-19,14.9 µM (inactive)
same,GI50,Hs-578T,60.1 µM (inactive)
same,GI50,A549,25.5 µM (inactive)
same,GI50,CAKI-1,18.4 µM (inactive)
same,GI50,T47D,28.2 µM (inactive)
same,GI50,OVCAR-4,20 µM (inactive)
same,GI50,M14,23.2 µM (inactive)
same,GI50,COLO 205,20 µM (inactive)
same,GI50,HCT-116,14.7 µM (inactive)
same,GI50,NCI-H23,24.7 µM (inactive)
same,GI50,HCC 2998,19 µM (inactive)
same,GI50,SF-539,20.2 µM (inactive)
same,GI50,OVCAR-5,20 µM (inactive)
same,GI50,MDA-MB-435,23.3 µM (inactive)
same,GI50,LOX IMVI,20.6 µM (inactive)
same,GI50,CCRF-CEM,16.7 µM (inactive)
same,GI50,SN12C,18.5 µM (inactive)
same,GI50,SF-295,17.4 µM (inactive)
same,GI50,RXF 393,19.6 µM (inactive)
same,GI50,HT-29,18.4 µM (inactive)
same,GI50,TK-10,32.9 µM (inactive)
same,GI50,OVCAR-3,25 µM (inactive)
same,GI50,Malme-3M,17.5 µM (inactive)
same,GI50,SK-MEL-28,29.5 µM (inactive)
same,GI50,EKVX,24.1 µM (inactive)
same,GI50,NCI-H226,24.3 µM (inactive)
same,GI50,NCI-H460,29.3 µM (inactive)
same,GI50,786-0,19.5 µM (inactive)
same,GI50,SK-MEL-5,20.3 µM (inactive)
same,GI50,NCI-H522,22.9 µM (inactive)
same,GI50,MCF7,81.7 µM (inactive)
same,GI50,A498,18.8 µM (inactive)
same,GI50,MOLT-4,45.5 µM (inactive)
same,GI50,PC-3,23.9 µM (inactive)
same,GI50,NCI/ADR-RES,23.6 µM (inactive)
same,GI50,DU-145,32.5 µM (inactive)
same,GI50,ACHN,25.1 µM (inactive)
same,GI50,SW-620,19.5 µM (inactive)
Nc1c(Br)cc2c(c1Br)Cc1cc(Br)ccc1-2,GI50,UACC-257,> 100 µM (inactive)
same,GI50,MDA-N,> 100 µM (inactive)
same,GI50,HOP-92,> 100 µM (inactive)
same,GI50,K562,> 100 µM (inactive)
same,GI50,SK-OV-3,> 100 µM (inactive)
same,GI50,MDA-MB-231,> 100 µM (inactive)
same,GI50,KM12,> 100 µM (inactive)
same,GI50,SF-268,> 100 µM (inactive)
same,GI50,SR,> 100 µM (inactive)
same,GI50,OVCAR-8,> 100 µM (inactive)
same,GI50,HCT-15,> 100 µM
same,GI50,SNB-75,> 100 µM (inactive)
same,GI50,SNB-19,> 100 µM (inactive)
same,GI50,Hs-578T,> 100 µM (inactive)
same,GI50,A549,> 100 µM (inactive)
same,GI50,T47D,> 100 µM (inactive)
same,GI50,OVCAR-4,> 100 µM (inactive)
same,GI50,M14,> 100 µM (inactive)
same,GI50,COLO 205,> 100 µM (inactive)
same,GI50,HCT-116,> 100 µM (inactive)
same,GI50,NCI-H23,> 100 µM (inactive)
same,GI50,HCC 2998,> 100 µM (inactive)
same,GI50,UO-31,> 100 µM (inactive)
same,GI50,MDA-MB-435,> 100 µM (inactive)
same,GI50,LOX IMVI,> 100 µM (inactive)
same,GI50,CCRF-CEM,> 100 µM (inactive)
same,GI50,SN12C,> 100 µM (inactive)
same,GI50,SF-295,> 100 µM (inactive)
same,GI50,RXF 393,> 100 µM (inactive)
same,GI50,HT-29,> 100 µM (inactive)
same,GI50,TK-10,> 100 µM (inactive)
same,GI50,OVCAR-3,> 100 µM (inactive)
same,GI50,SK-MEL-28,> 100 µM (inactive)
same,GI50,NCI-H226,> 100 µM (inactive)
same,GI50,NCI-H460,> 100 µM (inactive)
same,GI50,SK-MEL-5,> 100 µM (inactive)
same,GI50,NCI-H522,> 100 µM (inactive)
same,GI50,MCF7,> 100 µM (inactive)
same,GI50,A498,0.968 µM (active)
same,GI50,MOLT-4,> 100 µM (inactive)
same,GI50,PC-3,> 100 µM (inactive)
same,GI50,NCI/ADR-RES,> 100 µM (inactive)
same,GI50,DU-145,> 100 µM (inactive)
same,GI50,ACHN,> 100 µM (inactive)
same,GI50,U-251,> 100 µM (inactive)
same,GI50,SW-620,> 100 µM (inactive)
